Reference: ChEMBL document CHEMBL2169792, “Synthesis of new 4-thiazolidinone-, pyrazoline-, and isatin-based conjugates with promising antitumor activity” (J Med Chem, 2012)

System: PC-3
Assay: Cytotoxicity against human PC3 cells after 48 hrs by SRB assay
Type: functional
Details: PC-3, 48 h

`COc1ccc(C2CC(c3ccc4ccccc4c3)=NN2C2=NC(=O)/C(=C3\C(=O)Nc4ccc(Br)cc43)S2)cc1` (stereo not drawn) showed a GI50 of 26 nM, a TGI of 82.7 nM and a CC50 (read-out: LC50 (the source's name)) of 5460 nM.
